Calls of active or inactive are those of the source. For most assays here, no stated cut-off is given here; in the data, actives have a measured Kd and inactives only a lower limit.
Assays:
[1] = biological target: RAC-alpha serine/threonine-protein kinase (Homo sapiens, UniProt P31749)
[2] = biological target: Cyclin-dependent kinase 13 (Homo sapiens, UniProt Q14004)
[3] = biological target: Cyclin-dependent kinase 6 (Homo sapiens, UniProt Q00534)
dCTP pyrophosphatase 1 = biological target: T1, dCTP pyrophosphatase 1 (Homo sapiens, UniProt Q9H773)
T1 sequence (Q9H773 whole entry): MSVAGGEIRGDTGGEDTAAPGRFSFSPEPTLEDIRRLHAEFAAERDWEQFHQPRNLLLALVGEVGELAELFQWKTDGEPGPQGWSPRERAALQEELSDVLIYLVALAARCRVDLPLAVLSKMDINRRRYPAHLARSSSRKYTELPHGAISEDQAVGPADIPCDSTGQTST

[4] = biological target: T2, Mitogen-activated protein kinase kinase kinase kinase 2 (Homo sapiens, UniProt Q12851)
T2 sequence (Q12851 whole entry): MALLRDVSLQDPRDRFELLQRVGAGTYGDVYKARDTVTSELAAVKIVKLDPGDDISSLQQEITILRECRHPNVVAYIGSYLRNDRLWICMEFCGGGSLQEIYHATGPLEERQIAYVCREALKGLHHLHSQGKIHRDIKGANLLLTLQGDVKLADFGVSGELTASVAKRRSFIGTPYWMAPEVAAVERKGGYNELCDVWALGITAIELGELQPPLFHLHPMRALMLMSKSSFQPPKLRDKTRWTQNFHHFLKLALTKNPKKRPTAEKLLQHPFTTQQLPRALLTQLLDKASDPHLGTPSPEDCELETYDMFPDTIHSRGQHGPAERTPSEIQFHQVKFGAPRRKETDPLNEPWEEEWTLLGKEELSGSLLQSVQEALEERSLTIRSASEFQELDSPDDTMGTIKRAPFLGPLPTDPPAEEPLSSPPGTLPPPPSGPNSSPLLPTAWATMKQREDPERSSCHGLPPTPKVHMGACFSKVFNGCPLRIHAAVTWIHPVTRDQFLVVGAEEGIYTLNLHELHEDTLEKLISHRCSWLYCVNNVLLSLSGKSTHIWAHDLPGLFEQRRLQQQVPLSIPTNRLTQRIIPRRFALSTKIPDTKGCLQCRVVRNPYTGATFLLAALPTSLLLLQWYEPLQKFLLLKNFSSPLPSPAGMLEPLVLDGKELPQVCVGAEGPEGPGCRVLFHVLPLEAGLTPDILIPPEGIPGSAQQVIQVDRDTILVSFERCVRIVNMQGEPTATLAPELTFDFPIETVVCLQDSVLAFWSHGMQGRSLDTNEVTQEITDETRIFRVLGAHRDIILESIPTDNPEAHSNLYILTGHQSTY

[5] = biological target: Mitogen-activated protein kinase 1 (Homo sapiens, UniProt P28482)
Chain of Mitogen-activated protein kinase 1 (P28482 whole entry): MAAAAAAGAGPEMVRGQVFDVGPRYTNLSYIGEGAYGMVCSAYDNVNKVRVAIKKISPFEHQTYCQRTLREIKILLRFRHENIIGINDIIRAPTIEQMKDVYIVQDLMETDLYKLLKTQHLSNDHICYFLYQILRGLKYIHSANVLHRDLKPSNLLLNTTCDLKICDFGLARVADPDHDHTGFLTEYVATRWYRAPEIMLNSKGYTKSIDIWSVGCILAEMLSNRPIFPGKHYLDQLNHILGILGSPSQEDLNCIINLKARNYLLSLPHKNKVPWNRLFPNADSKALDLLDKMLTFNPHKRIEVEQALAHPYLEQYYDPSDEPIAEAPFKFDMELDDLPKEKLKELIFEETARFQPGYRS

[6] = biological target: T3, Serine/threonine-protein kinase NLK (Homo sapiens, UniProt Q9UBE8)
T3 sequence (Q9UBE8 whole entry): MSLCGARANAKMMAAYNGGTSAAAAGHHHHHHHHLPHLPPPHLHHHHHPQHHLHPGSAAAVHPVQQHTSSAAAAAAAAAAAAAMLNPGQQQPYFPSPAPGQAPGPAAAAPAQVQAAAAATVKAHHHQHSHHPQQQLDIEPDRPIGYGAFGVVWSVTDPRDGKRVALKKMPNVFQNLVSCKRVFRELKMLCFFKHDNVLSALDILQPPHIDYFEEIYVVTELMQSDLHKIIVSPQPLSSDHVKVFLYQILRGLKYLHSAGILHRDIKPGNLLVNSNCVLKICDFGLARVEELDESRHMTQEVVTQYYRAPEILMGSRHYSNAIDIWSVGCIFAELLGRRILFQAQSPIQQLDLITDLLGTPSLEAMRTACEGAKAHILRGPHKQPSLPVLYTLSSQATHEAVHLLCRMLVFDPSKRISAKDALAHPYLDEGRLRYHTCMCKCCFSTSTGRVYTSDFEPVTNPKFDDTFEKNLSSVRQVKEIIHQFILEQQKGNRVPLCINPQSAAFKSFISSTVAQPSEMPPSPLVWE

[7] = biological target: Ribosomal protein S6 kinase alpha-5 (Homo sapiens, UniProt O75582)
Chain of Ribosomal protein S6 kinase alpha-5 (O75582 whole entry): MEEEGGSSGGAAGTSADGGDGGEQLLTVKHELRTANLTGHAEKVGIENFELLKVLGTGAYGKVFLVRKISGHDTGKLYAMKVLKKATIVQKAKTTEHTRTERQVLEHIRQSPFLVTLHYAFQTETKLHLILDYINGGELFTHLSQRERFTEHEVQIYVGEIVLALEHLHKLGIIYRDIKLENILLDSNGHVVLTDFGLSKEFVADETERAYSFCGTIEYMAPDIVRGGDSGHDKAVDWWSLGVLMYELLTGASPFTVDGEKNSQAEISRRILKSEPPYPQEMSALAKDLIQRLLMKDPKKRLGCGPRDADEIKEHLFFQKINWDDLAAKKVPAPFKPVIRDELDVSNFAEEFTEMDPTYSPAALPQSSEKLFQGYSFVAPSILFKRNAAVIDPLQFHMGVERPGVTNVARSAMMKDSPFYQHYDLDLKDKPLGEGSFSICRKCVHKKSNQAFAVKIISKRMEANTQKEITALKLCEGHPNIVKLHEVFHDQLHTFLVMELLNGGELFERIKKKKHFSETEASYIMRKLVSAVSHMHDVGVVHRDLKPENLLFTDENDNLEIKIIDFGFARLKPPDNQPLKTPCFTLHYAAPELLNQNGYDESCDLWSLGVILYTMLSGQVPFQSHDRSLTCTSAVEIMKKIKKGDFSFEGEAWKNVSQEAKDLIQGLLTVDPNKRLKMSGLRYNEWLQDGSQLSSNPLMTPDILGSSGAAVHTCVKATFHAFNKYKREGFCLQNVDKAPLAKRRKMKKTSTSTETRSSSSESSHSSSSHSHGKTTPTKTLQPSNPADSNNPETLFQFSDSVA

[8] = biological target: U5 small nuclear ribonucleoprotein 200 kDa helicase (Homo sapiens, UniProt O75643)
TGF-beta receptor type-2 = TGF-beta receptor type-2 (Homo sapiens, UniProt P37173)
Chain of TGF-beta receptor type-2 (P37173 whole entry): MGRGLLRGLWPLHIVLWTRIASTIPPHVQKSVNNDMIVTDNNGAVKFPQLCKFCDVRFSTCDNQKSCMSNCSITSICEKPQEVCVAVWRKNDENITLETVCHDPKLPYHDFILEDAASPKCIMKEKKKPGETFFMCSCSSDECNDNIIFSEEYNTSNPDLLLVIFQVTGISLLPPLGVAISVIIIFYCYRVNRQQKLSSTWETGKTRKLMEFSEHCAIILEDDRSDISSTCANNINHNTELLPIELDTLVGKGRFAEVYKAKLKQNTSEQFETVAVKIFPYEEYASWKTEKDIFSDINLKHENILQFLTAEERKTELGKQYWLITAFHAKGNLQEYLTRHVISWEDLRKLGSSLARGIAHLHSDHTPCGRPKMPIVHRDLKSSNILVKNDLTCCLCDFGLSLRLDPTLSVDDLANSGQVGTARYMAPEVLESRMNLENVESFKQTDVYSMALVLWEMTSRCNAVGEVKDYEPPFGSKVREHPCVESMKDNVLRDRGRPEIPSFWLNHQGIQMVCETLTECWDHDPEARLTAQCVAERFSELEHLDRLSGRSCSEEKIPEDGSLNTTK

[9] = biological target: T4, Non-receptor tyrosine-protein kinase TNK1 (Homo sapiens, UniProt Q13470)
T4 sequence (Q13470 whole entry): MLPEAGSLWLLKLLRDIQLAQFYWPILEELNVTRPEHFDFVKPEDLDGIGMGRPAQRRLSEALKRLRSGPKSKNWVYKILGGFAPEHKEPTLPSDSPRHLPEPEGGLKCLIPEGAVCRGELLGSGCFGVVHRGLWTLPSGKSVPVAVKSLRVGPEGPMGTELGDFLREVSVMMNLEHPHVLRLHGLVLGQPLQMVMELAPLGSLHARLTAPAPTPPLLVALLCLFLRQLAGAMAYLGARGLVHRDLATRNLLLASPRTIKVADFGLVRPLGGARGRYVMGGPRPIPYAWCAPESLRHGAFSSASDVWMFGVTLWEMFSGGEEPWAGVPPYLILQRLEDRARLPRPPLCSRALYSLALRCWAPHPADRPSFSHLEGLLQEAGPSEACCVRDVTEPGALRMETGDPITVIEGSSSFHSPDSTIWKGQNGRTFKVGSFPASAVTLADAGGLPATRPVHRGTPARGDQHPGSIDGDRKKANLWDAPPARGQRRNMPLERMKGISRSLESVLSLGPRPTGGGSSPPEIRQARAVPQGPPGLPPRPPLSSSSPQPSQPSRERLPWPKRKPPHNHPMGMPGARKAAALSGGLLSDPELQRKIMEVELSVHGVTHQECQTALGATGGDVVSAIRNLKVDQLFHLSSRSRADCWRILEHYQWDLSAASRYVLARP

Chain of Cyclin-dependent kinase 13 (Q14004 whole entry): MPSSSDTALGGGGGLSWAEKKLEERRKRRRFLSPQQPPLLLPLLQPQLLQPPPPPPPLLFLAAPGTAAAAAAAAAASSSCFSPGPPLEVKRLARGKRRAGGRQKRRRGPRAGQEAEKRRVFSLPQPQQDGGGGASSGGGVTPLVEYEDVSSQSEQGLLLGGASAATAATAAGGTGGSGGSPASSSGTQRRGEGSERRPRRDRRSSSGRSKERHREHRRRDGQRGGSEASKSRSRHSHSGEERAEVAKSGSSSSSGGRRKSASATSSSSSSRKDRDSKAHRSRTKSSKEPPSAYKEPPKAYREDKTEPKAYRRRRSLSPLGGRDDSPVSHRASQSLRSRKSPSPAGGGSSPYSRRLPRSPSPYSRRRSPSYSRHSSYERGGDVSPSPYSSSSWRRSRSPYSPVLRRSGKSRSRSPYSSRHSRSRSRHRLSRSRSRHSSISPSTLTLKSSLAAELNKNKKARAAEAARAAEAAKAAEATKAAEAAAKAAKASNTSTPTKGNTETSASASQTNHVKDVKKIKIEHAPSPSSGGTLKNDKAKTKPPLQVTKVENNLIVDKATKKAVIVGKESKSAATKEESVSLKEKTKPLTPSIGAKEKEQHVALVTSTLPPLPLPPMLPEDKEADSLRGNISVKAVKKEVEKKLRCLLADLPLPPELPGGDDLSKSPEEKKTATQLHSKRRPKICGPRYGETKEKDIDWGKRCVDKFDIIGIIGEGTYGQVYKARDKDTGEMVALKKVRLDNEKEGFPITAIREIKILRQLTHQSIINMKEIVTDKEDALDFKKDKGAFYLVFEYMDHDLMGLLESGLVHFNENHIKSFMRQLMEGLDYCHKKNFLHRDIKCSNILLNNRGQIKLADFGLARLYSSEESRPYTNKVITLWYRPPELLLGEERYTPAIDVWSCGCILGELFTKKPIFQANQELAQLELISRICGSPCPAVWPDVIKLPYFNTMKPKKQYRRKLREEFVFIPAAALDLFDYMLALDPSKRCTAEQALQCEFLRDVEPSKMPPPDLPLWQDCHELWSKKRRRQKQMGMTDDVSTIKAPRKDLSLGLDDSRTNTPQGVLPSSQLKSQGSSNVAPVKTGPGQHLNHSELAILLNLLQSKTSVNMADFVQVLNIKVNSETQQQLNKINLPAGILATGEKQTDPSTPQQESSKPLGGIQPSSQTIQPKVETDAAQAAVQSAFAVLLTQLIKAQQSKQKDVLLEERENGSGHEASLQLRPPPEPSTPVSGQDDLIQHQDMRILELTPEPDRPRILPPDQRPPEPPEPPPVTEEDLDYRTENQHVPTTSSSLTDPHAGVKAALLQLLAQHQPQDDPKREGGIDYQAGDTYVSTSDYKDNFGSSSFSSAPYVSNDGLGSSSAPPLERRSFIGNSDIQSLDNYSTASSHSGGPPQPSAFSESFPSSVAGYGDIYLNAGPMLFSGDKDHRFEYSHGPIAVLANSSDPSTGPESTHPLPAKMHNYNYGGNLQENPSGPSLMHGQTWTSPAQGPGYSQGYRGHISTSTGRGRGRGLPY
Chain of RAC-alpha serine/threonine-protein kinase (P31749 whole entry): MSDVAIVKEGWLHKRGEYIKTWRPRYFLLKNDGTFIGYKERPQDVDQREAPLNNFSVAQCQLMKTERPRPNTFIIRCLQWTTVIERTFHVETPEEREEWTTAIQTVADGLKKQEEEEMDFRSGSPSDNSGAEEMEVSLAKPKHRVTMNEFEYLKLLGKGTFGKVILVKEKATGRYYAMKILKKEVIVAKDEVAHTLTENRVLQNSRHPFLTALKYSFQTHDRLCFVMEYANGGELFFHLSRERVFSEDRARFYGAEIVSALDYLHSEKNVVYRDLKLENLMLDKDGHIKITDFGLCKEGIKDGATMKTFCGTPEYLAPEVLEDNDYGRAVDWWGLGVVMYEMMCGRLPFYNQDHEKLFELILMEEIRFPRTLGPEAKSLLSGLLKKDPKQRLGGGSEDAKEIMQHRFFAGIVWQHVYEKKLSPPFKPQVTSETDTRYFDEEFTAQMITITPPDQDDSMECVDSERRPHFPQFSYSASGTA
Chain of Cyclin-dependent kinase 6 (Q00534 whole entry): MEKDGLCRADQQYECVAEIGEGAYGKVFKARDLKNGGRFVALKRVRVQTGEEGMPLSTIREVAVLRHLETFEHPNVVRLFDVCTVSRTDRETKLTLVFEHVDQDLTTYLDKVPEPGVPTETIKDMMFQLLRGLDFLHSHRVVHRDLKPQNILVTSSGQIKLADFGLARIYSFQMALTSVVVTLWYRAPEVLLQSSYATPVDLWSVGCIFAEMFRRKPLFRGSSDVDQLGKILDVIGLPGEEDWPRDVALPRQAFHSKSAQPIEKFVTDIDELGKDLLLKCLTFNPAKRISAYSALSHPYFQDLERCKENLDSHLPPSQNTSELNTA

Row | Structure (SMILES) | Kd [1] | Kd [2] | Kd [3] | Kd (dCTP pyrophosphatase 1) | Kd [4] | Kd [5] | Kd [6] | Kd [7] | Kd [8] | Kd (TGF-beta receptor type-2) | Kd [9]
1 | Cc1cc2c(F)c(Oc3ncnn4cc(OC[C@@H](C)OC(=O)[C@H](C)N)c(C)c34)ccc2[nH]1 [BRIVANIB ALANINATE] | > 30 µM (inactive) | > 30 µM (inactive) | > 30 µM (inactive) | > 30 µM (inactive) | > 30 µM (inactive) | > 30 µM (inactive) | > 30 µM (inactive) | > 30 µM (inactive) | > 30 µM (inactive) | > 30 µM (inactive) | > 30 µM (inactive)
2 | COc1cc(OC)c(/C=C/S(=O)(=O)Cc2ccc(OC)c(NCC(=O)O)c2)c(OC)c1 [RIGOSERTIB] | > 30 µM (inactive) | > 30 µM (inactive) | > 30 µM (inactive) | > 30 µM (inactive) | > 30 µM (inactive) | > 30 µM (inactive) | > 30 µM (inactive) | > 30 µM (inactive) | > 30 µM (inactive) | > 30 µM (inactive) | > 30 µM (inactive)
3 | C=CC(=O)N1CCC(Oc2cc3c(Nc4ccc(Cl)c(Cl)c4F)ncnc3cc2OC)CC1 [POZIOTINIB] | > 30 µM (inactive) | > 30 µM (inactive) | > 30 µM (inactive) | > 30 µM (inactive) | > 30 µM (inactive) | > 30 µM (inactive) | > 30 µM (inactive) | > 30 µM (inactive) | > 30 µM (inactive) | > 30 µM (inactive) | 1.68 µM (active)
4 | Cc1ccc(-n2nc(C(C)(C)C)cc2NC(=O)NCc2cc(F)ccc2Oc2ccc3c(cnn3CCO)c2)cc1 [PEXMETINIB] | > 30 µM (inactive) | > 30 µM (inactive) | > 30 µM (inactive) | > 30 µM (inactive) | > 30 µM (inactive) | > 30 µM (inactive) | > 30 µM (inactive) | > 30 µM (inactive) | > 30 µM (inactive) | > 30 µM (inactive) | 1.66 µM (active)
5 | Cn1cc(-c2ccc(F)c(C(F)(F)F)c2)nc1C1CCN(c2ncnc3[nH]ncc23)CC1 [LY-2584702] | > 30 µM (inactive) | > 30 µM (inactive) | > 30 µM (inactive) | > 30 µM (inactive) | > 30 µM (inactive) | > 30 µM (inactive) | > 30 µM (inactive) | > 30 µM (inactive) | > 30 µM (inactive) | > 30 µM (inactive) | > 30 µM (inactive)
6 | CNC(=O)c1cc(Oc2ccc(NC(=O)Nc3ccc(Cl)c(C(F)(F)F)c3)c(F)c2)ccn1 [REGORAFENIB] | > 30 µM (inactive) | > 30 µM (inactive) | > 30 µM (inactive) | > 30 µM (inactive) | > 30 µM (inactive) | > 30 µM (inactive) | > 30 µM (inactive) | > 30 µM (inactive) | > 30 µM (inactive) | > 30 µM (inactive) | > 30 µM (inactive)
7 | CN1CCC(CNc2ccc3ncc(-c4cccc(OC(F)(F)F)c4)n3n2)CC1 [SGI-1776] | > 30 µM (inactive) | > 30 µM (inactive) | > 30 µM (inactive) | > 30 µM (inactive) | > 30 µM (inactive) | > 30 µM (inactive) | > 30 µM (inactive) | > 30 µM (inactive) | > 30 µM (inactive) | > 30 µM (inactive) | > 30 µM (inactive)

From ChEMBL document CHEMBL3991601, “The target landscape of clinical kinase drugs” (Science, 2017)
